The target of experiment [1] is T1, BRAF V600E (Homo sapiens, UniProt P15056, V600E).
T1 construct: expressed in transfected cells
The experiment can be described thus: Cellular assay of target protein degradation, T-Rex 293 cells stably transfected with HA-BRAF_V600E (HA immunofluorescence, high content imaging). The class given is cell-based. As to conditions: T-Rex 293 HA-BRAF V600E; for DC50: half maximal degradation, read-out: BRaf V600E DC50; for Dmax: maximum degradation observed. In short, it runs like this:
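Doxycycline-induced (1 ng/mL) T-Rex 293 cells expressing HA-BRAF V600E treated 24 h at 37 °C with compound at 1 μM to 0.1 nM final in 0.1% DMSO. Remaining HA-tagged protein quantified by fixed-cell anti-HA immunofluorescence and high-content imaging; DC50 and Dmax (% of control) derived.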

Experiment [2] addresses T2, BRAF G466V (Homo sapiens, UniProt P15056, G466V).
T2 construct: expressed in transfected cells
In words: Cellular assay of target protein degradation, T-Rex 293 cells stably transfected with HA-BRAF G466V (HA immunofluorescence, high content imaging). The class given is cell-based. To be noted: T-Rex 293 HA-BRAF G466V; for DC50: half maximal degradation, read-out: BRaf G466V DC50; for Dmax: maximum degradation observed. In short, it runs like this:
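Doxycycline-induced (0.75 ng/mL) cells treated 24 h at 37 °C with compound from 30 nM to 3 pM (0.1% DMSO). After fixation and permeabilisation, HA-tagged BRAF G466V immunostained and quantified by high-content imaging. DC50 and Dmax (percent of control) derived.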

As usually defined, the DC50 is the midpoint of the concentration-degradation curve. The Dmax is the largest share of the target that was removed. A higher Dmax goes with deep degradation.

T2 sequence (P15056 whole entry G466V): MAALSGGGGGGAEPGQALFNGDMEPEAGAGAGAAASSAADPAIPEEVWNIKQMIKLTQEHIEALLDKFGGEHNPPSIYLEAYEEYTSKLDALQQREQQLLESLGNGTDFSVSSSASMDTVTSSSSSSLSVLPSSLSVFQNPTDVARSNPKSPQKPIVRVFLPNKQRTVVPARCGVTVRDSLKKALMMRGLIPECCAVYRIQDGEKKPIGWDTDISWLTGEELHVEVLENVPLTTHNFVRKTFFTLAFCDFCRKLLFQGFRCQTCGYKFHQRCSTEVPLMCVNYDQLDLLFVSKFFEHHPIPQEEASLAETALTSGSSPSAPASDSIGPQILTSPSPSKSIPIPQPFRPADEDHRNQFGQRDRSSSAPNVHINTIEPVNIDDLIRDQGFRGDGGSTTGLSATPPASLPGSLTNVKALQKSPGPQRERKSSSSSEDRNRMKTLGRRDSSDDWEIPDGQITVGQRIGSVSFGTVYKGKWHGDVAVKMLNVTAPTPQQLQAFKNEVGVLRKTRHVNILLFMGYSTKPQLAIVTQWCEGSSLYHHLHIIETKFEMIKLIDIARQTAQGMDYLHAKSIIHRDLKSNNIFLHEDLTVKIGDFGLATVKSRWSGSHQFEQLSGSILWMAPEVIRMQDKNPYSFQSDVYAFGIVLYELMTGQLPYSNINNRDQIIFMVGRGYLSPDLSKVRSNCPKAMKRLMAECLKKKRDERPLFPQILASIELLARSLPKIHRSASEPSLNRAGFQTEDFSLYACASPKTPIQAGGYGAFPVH
T1 sequence (P15056 whole entry V600E): as the sequence (P15056 whole entry G466V) above, with V466G, V600E counted along it

On to `O=C1CCC(N2Cc3cc(N4CC(CN5CCN(C6(c7ccc(-c8cnc9[nH]cc(C(=O)c%10c(F)ccc(NS(=O)(=O)N%11CC[C@@H](F)C%11)c%10F)c9c8)cc7)CC6)CC5)C4)ccc3C2=O)C(=O)N1` (stereo partly drawn) [Compound 200, (3R)-N-{3-[5-(4-{1-[4-({1-[2-(2,6-dioxopiperidin-3-yl)-1-oxo-2,3-dihydro-1H-isoindol-5-yl]azetidin-3-yl}methyl)piperazin-1-yl]cyclopropyl}phenyl)-1H-pyrrolo[2,3-b]pyridine-3-carbonyl]-2,4-difluorophenyl}-3-fluoropyrrolidine-1-sulfonamide], for which, in experiment [1], the half-maximal degradation concentration (DC50) fell in the range of 50 to 500 nM and the Dmax was 35 to 70%. Besides, in experiment [2], the DC50 is 1 to 10 nM and the greatest degradation seen (Dmax) was 35 to 70%.
For the compound `O=C1CC[C@H](N2Cc3cc(N4CCC(CN5CCN(C6(c7ncc(-c8cnc9[nH]cc(C(=O)c%10c(F)ccc(NS(=O)(=O)N%11CC[C@@H](F)C%11)c%10F)c9c8)cn7)CC6)CC5)CC4)ccc3C2=O)C(=O)N1` [Compound 201, (3R)-N-[3-[5-[2-[1-[4-[[1-[2-[(3S)-2,6-dioxo-3-piperidyl]-1-oxo-isoindolin-5-yl]-4-piperidyl]methyl]piperazin-1-yl]cyclopropyl]pyrimidin-5-yl]-1H-pyrrolo[2,3-b]pyridine-3-carbonyl]-2,4-difluoro-phenyl]-3-fluoro-pyrrolidine-1-sulfonamide], the DC50 in experiment [1] fell in the range of 5 to 50 nM; in experiment [2], 1 to 10 nM. In addition, the results for the Dmax in experiment [1] and in experiment [2] were less than 35% and 35 to 70%, respectively.
Consider `O=C1CC[C@H](N2Cc3cc(N4CC(CN5CCN(C6(c7ncc(-c8cnc9[nH]cc(C(=O)c%10c(F)ccc(NS(=O)(=O)N%11CC[C@@H](F)C%11)c%10F)c9c8)cn7)CC6)CC5)C4)ccc3C2=O)C(=O)N1` [Compound 202, (3R)-N-(3-{5-[2-(1-{4-[(1-{2-[(3S)-2,6-dioxopiperidin-3-yl]-1-oxo-2,3-dihydro-1H-isoindol-5-yl}azetidin-3-yl)methyl]piperazin-1-yl}cyclopropyl)pyrimidin-5-yl]-1H-pyrrolo[2,3-b]pyridine-3-carbonyl}-2,4-difluorophenyl)-3-fluoropyrrolidine-1-sulfonamide], for which, in experiment [1], the half-maximal degradation concentration (DC50) is 50 to 500 nM and the greatest degradation seen (Dmax) was 35 to 70%. Moreover, in experiment [2], the half-maximal degradation concentration (DC50) was in the range of 1 to 10 nM and the Dmax lay in the range of 35 to 70%.
Consider `CCc1c(NS(=O)(=O)N2CC[C@@H](F)C2)ccc(F)c1C(=O)c1c[nH]c2ncc(-c3ccc(N4CCC(CN5CCC(c6ccc7c(c6)CN([C@H]6CCC(=O)NC6=O)C7=O)CC5)CC4)cc3)cc12` [Compound 203, (3R)—N-{3-[5-(4-{4-[(4-{2-[(3S)-2,6-dioxopiperidin-3-yl]-1-oxo-2,3-dihydro-1H-isoindol-5-yl}piperidin-1-yl)methyl]piperidin-1-yl}phenyl)-1H-pyrrolo[2,3-b]pyridine-3-carbonyl]-2-ethyl-4-fluorophenyl}-3-fluoropyrrolidine-1-sulfonamide], for which, in experiment [1], the DC50 was less than 5 nM and the maximal degradation (Dmax) fell in the range of 35 to 70%. For the same compound, in experiment [2], the half-maximal degradation concentration (DC50) is less than 1 nM and the Dmax lay within 35 to 70%.
As to `CC(C)CS(=O)(=O)Nc1ccc(F)c(C(=O)c2c[nH]c3ncc(-c4ccc(N5CCC(CN6CCC(c7ccc8c(c7)CN([C@H]7CCC(=O)NC7=O)C8=O)CC6)CC5)cc4)cc23)c1F` [Compound 204, N-{3-[5-(4-{4-[(4-{2-[(3S)-2,6-dioxopiperidin-3-yl]-1-oxo-2,3-dihydro-1H-isoindol-5-yl}piperidin-1-yl)methyl]piperidin-1-yl}phenyl)-1H-pyrrolo[2,3-b]pyridine-3-carbonyl]-2,4-difluorophenyl}-2-methylpropane-1-sulfonamide], in experiment [1], the DC50 was less than 5 nM and the greatest degradation seen (Dmax) is 35 to 70%. In experiment [2], the DC50 is less than 1 nM and the Dmax is 35 to 70%.
Turning to `N#Cc1cc(-c2cnc3[nH]cc(C(=O)c4c(F)ccc(NS(=O)(=O)N5CC[C@@H](F)C5)c4F)c3c2)ccc1N1CCC(CN2CCC(c3ccc4c(c3)CN([C@H]3CCC(=O)NC3=O)C4=O)CC2)CC1` [Compound 205, (3R)—N-{3-[5-(3-cyano-4-{4-[(4-{2-[(3S)-2,6-dioxopiperidin-3-yl]-1-oxo-2,3-dihydro-1H-isoindol-5-yl}piperidin-1-yl)methyl]piperidin-1-yl}phenyl)-1H-pyrrolo[2,3-b]pyridine-3-carbonyl]-2,4-difluorophenyl}-3-fluoropyrrolidine-1-sulfonamide], in experiment [1], the DC50 lay within 5 to 50 nM and the Dmax lay within 35 to 70%. Further, in experiment [2], the DC50 was less than 1 nM and the Dmax fell in the range of 35 to 70%.
In the case of `O=C1CC[C@H](N2Cc3cc(C4CCN(CC5CCN(c6ccc(-c7cnc8[nH]cc(C(=O)c9c(F)ccc(NS(=O)(=O)CC%10CC%10)c9F)c8c7)cc6)CC5)CC4)ccc3C2=O)C(=O)N1` [Compound 206, 1-cyclopropyl-N-{3-[5-(4-{4-[(4-{2-[(3S)-2,6-dioxopiperidin-3-yl]-1-oxo-2,3-dihydro-1H-isoindol-5-yl}piperidin-1-yl)methyl]piperidin-1-yl}phenyl)-1H-pyrrolo[2,3-b]pyridine-3-carbonyl]-2,4-difluorophenyl}methanesulfonamide], the values for the DC50 in experiment [1] and in experiment [2] were 5 to 50 nM and less than 1 nM, respectively. The greatest degradation seen (Dmax) in experiment [1] and in experiment [2] was 35 to 70% throughout.
Take `COc1c(NS(=O)(=O)N2CC[C@@H](F)C2)ccc(F)c1C(=O)c1c[nH]c2ncc(-c3ccc(N4CCC(CN5CCC(c6ccc7c(c6)CN([C@H]6CCC(=O)NC6=O)C7=O)CC5)CC4)cc3)cc12` [Compound 207, (3R)—N-{3-[5-(4-{4-[(4-{2-[(3S)-2,6-dioxopiperidin-3-yl]-1-oxo-2,3-dihydro-1H-isoindol-5-yl}piperidin-1-yl)methyl]piperidin-1-yl}phenyl)-1H-pyrrolo[2,3-b]pyridine-3-carbonyl]-4-fluoro-2-methoxyphenyl}-3-fluoropyrrolidine-1-sulfonamide]: the results for the DC50 in experiment [1] and in experiment [2] were 5 to 50 nM and less than 1 nM, respectively. The maximal degradation (Dmax) in experiment [1] and in experiment [2] was 35 to 70% throughout.
Regarding `CC(C)N(C)S(=O)(=O)Nc1ccc(F)c(C(=O)c2c[nH]c3ncc(-c4ccc(N5CCC(CN6CCC(c7ccc8c(c7)CN([C@H]7CCC(=O)NC7=O)C8=O)CC6)CC5)cc4)cc23)c1F` [Compound 208, (3S)-3-(5-{1-[(1-{4-[3-(2,6-difluoro-3-{[methyl(propan-2-yl)sulfamoyl]amino}benzoyl)-1H-pyrrolo[2,3-b]pyridin-5-yl]phenyl}piperidin-4-yl)methyl]piperidin-4-yl}-1-oxo-2,3-dihydro-1H-isoindol-2-yl)piperidine-2,6-dione], the 50% degradation concentration (DC50) in experiment [1] is 5 to 50 nM; in experiment [2] it was less than 1 nM. In addition, the Dmax in experiment [1] and in experiment [2] was 35 to 70% each time.
As to `O=C1CCC(N2Cc3cc(N4CC(CN5CCN(C6CCN(c7ccc(-c8cnc9[nH]cc(C(=O)c%10c(F)ccc(NS(=O)(=O)N%11CC[C@@H](F)C%11)c%10F)c9c8)cc7)CC6)CC5)C4)ccc3C2=O)C(=O)N1` (stereo partly drawn) [Compound 209, (3R)—N-{3-[5-(4-{4-[4-({1-[2-(2,6-dioxopiperidin-3-yl)-1-oxo-2,3-dihydro-1H-isoindol-5-yl]azetidin-3-yl}methyl)piperazin-1-yl]piperidin-1-yl}phenyl)-1H-pyrrolo[2,3-b]pyridine-3-carbonyl]-2,4-difluorophenyl}-3-fluoropyrrolidine-1-sulfonamide], the 50% degradation concentration (DC50) in experiment [1] lay in the range of 5 to 50 nM; in experiment [2], 1 to 10 nM. In addition, the Dmax in experiment [1] was less than 35%; in experiment [2] it was 35 to 70%.
For `CNc1cc(-c2cnc3[nH]cc(C(=O)c4c(F)ccc(NS(=O)(=O)N5CC[C@@H](F)C5)c4F)c3c2)ccc1N1CCC(CN2CCC(c3ccc4c(c3)CN([C@H]3CCC(=O)NC3=O)C4=O)CC2)CC1` [Compound 210, (3R)—N-{3-[5-(4-{4-[(4-{2-[(3S)-2,6-dioxopiperidin-3-yl]-1-oxo-2,3-dihydro-1H-isoindol-5-yl}piperidin-1-yl)methyl]piperidin-1-yl}-3-(methylamino)phenyl)-1H-pyrrolo[2,3-b]pyridine-3-carbonyl]-2,4-difluorophenyl}-3-fluoropyrrolidine-1-sulfonamide] the same measures were 5 to 50 nM, 1 to 10 nM, 35 to 70% and more than 70%.
Turning to `C[C@H]1CCCN1S(=O)(=O)Nc1ccc(F)c(C(=O)c2c[nH]c3ncc(-c4ccc(N5CCC(CN6CCC(c7ccc8c(c7)CN([C@H]7CCC(=O)NC7=O)C8=O)CC6)CC5)cc4)cc23)c1F` [Compound 211, (2S)—N-{3-[5-(4-{4-[(4-{2-[(3S)-2,6-dioxopiperidin-3-yl]-1-oxo-2,3-dihydro-1H-isoindol-5-yl}piperidin-1-yl)methyl]piperidin-1-yl}phenyl)-1H-pyrrolo[2,3-b]pyridine-3-carbonyl]-2,4-difluorophenyl}-2-methylpyrrolidine-1-sulfonamide], in experiment [1], the DC50 is 5 to 50 nM and the Dmax was 35 to 70%. For the same compound, in experiment [2], the half-maximal degradation concentration (DC50) was in the range of 1 to 10 nM and the Dmax is 35 to 70%.
Turning to `COc1ccc(NS(=O)(=O)N2CC[C@@H](F)C2)c(F)c1C(=O)c1c[nH]c2ncc(-c3ccc(N4CCC(CN5CCC(c6ccc7c(c6)CN([C@H]6CCC(=O)NC6=O)C7=O)CC5)CC4)cc3)cc12` [Compound 212, (3R)—N-{3-[5-(4-{4-[(4-{2-[(3S)-2,6-dioxopiperidin-3-yl]-1-oxo-2,3-dihydro-1H-isoindol-5-yl}piperidin-1-yl)methyl]piperidin-1-yl}phenyl)-1H-pyrrolo[2,3-b]pyridine-3-carbonyl]-2-fluoro-4-methoxyphenyl}-3-fluoropyrrolidine-1-sulfonamide], in experiment [1], the 50% degradation concentration (DC50) was 5 to 50 nM and the greatest degradation seen (Dmax) fell in the range of 35 to 70%. Also, in experiment [2], the DC50 was 1 to 10 nM and the greatest degradation seen (Dmax) was more than 70%.

Source of the values: patent US12180193B2, “Accelerating fibrosarcoma protein degrading compounds and associated methods of use” (Arvinas Operations, Inc., priority 2020, dated 2024).
